Reference: patent US20250367129A1, “Lipid Compounds and Uses Thereof” (Pfizer Inc., priority 2022, published 2025)

How the values were obtained:
[1] = LNP size and polydispersity index by Malvern Zetasizer dynamic light scattering (CA HA modFlu mRNA LNPs); assay type: physicochemical; settings: DLS; for Size (nm): LNP of the ionizable lipid:cholesterol:DSPC:ALC-0159 about 46.3:42.7:9.4:1.6, N:P about 6:1, CA HA modFlu mRNA; for PDI: LNP with CA HA modFlu mRNA
Method in brief: (§1)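 LNPs of ionizable lipid:cholesterol:DSPC:ALC-0159 (molar ratio about 46.3:42.7:9.4:1.6) formed by syringe-pump mixing of ethanolic lipids with mRNA at N:P about 6:1, then dialysed into buffer (e.g., Tris) and filtered. Size and PDI measured by DLS; total RNA and encapsulation efficiency by RiboGreen.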

Hek293T cells = assay: In vitro expression of encoded gene of interest after LNP dosing, high content imaging (WISC HA modFlu mRNA); assay type: cell-based; settings: LNP with WISC HA modFlu mRNA, overnight incubation
Procedure: (§2) Lipid nanoparticles were prepared and tested according to the general procedures described in U.S. Pat. No. 9,737,619 (PCT Pub. No. WO2015/199952) and U.S. Pat. No. 10,166,298 (PCT Pub. No. WO 2017/075531) and PCT Pub. No. WO2020/146805. The novel ionizable lipids of the invention, cholesterol, DSPC and PEG-Lipid were solubilized in Ethanol at a molar ratio of about 46.3:42.7:9.4:1.6. Lipid nanoparticles (LNP) were prepared at a total lipid to mRNA ratio of about 23:1. In short, the mRNA (WISC HA modFlu) was diluted in buffer. Syringe pumps were used to mix the lipid solution with the mRNA solution. The ethanol was removed, and external buffer replaced with another buffer (e.g., Tris) by dialysis. Finally, the lipid nanoparticle size and size distribution were determined by dynamic light scattering using an Unchained Labs Stunner (Unchained Labs, USA). RNA encapsulation efficiency was determined using the Quant-iT RiboGreen RNA assay (Life Technologies, USA). Briefly, LNPs were incubated with RiboGreen dye (200-fold dilution per manufactures' instruction) in the presence and absence of 1% Triton-X 100 and fluorescence intensities (Excitation/Emission: 485/528 […]) were measured for unencapsulated RNA and total RNA after release from LNPs by Triton-X 100.
(§3) Plated Hek293T or Hela cells were dosed with lipid nanoparticles in a total volume of 40 μl cell culture media and incubated overnight at 37° C. and 5% CO2. After fixation with 4% paraformaldehyde in PBS cells were washed in PBS containing 0.3% Triton-X100 and 3% BSA (w/v), followed by nuclear staining with Hoechst and antibody staining for the encoded gene of interest. Nuclear count and identification of cells stained positive for gene of interest was done on an Opera Phenix high content imager (PerkinElmer, USA).

Hela cells [2] = assay: as above; assay type: cell-based; settings: LNP with WISC HA modFlu mRNA, overnight incubation
Procedure: as §2, §3

[3] = Encapsulation efficiency, RiboGreen RNA quantitation assay (CA HA modFlu mRNA LNPs); assay type: physicochemical; settings: LNP with CA HA modFlu mRNA
Method in brief: as §1

[4] = RNA encapsulation efficiency, Quant-iT RiboGreen RNA assay (WISC HA modFlu mRNA LNPs); assay type: physicochemical; settings: LNP with WISC HA modFlu mRNA
Procedure: as §2

[5] = LNP size and size distribution by dynamic light scattering (WISC HA modFlu mRNA LNPs); assay type: physicochemical; settings: DLS; for Size (nm): LNP of the ionizable lipid:cholesterol:DSPC:PEG-Lipid about 46.3:42.7:9.4:1.6 with WISC HA modFlu mRNA; for PDI: LNP with WISC HA modFlu mRNA
Procedure: as §2

Hela cells [6] = assay: In vitro expression of novel ionizable lipid nanoparticles, high content imaging (CA HA modFlu mRNA); assay type: cell-based; settings: LNP with CA HA modFlu mRNA
Method in brief: (§4)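 Lipid nanoparticles of ionizable lipid, cholesterol, DSPC and ALC-0159 (about 46.3:42.7:9.4:1.6 molar), N:P about 6:1, carrying mRNA, dosed onto cells overnight at 37° C., 5% CO2. Cells fixed and stained with Hoechst plus antibody to encoded protein; nuclei and antigen-positive cells counted by high-content imaging.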

HEK293F cells = assay: as above; assay type: cell-based; settings: LNP with CA HA modFlu mRNA
Method in brief: as §4

Compound	Size (nm) [1]	PDI [1]	EC50 Hek293T (ng/well) (Hek293T cells)	EC50 Hela (ng/well) (Hela cells [2])	EE % [3]	EE % [4]	Size (nm) [5]	PDI [5]	EC50 Hela (ng/well) (Hela cells [6])	EC50 Hek293F (ng/well) (HEK293F cells)
CCCCCCCC(CCCCCCC)C(=O)O[C@@H]1CC2(CCN(CCCCO)CC2)C[C@H]1OC(=O)C(CCCCCCC)CCCCCCC (racemic) [Example 51, rac-(2R,3R)-8-(4-Hydroxybutyl)-8-azaspiro[4.5]decane-2,3-diyl bis(2-heptylnonanoate)]	58 nm	0.030	5.3 ng/well	10.7 ng/well	99%	96%	72 nm	0.03	0.64 ng/well	0.27 ng/well
CCCCCCCC(CCCCCCC)C(=O)OCC1(COC(=O)C(CCCCCCC)CCCCCCC)CCC2(CCN(CCCCO)CC2)CC1 [Example 1, (3-(4-hydroxybutyl)-3-azaspiro[5.5]undecane-9,9-diyl)bis(methylene) bis(2-heptylnonanoate)]	78 nm	0.050	13.9 ng/well	18.3 ng/well	100%	99%	76 nm	0.04	1.2 ng/well	1.7 ng/well
CCCCCCCC(CCCCCCC)C(=O)OCC(COC(=O)C(CCCCCCC)CCCCCCC)N1CCC2(CCN(CCCCO)CC2)CC1 [Example 3, 2-(9-(4-Hydroxybutyl)-3,9-diazaspiro[5.5]undecan-3-yl)propane-1,3-diyl bis(2-heptylnonanoate)]	90 nm	0.040	11.9 ng/well	18.4 ng/well	100%	99%	152 nm	0.07	1.7 ng/well	2.8 ng/well
CCCCCCCC(CCCCCCC)C(=O)OCC(COC(=O)C(CCCCCCC)CCCCCCC)C1CCC2(CC1)CCN(CCCCO)CC2 [Example 2, 2-(3-(4-hydroxybutyl)-3-azaspiro[5.5]undecan-9-yl)propane-1,3-diyl bis(2-heptylnonanoate)]	92 nm	0.040	14.5 ng/well	28.1 ng/well	100%	99%	93 nm	0.06	1.6 ng/well	2.5 ng/well
CCCCCCCCCCCCCCCC(=O)OCC(COC(=O)CCC(CCCC)C(CCCC)CCCC)N1CCC2(CCN(CCCCO)CC2)CC1 (stereo not shown) [Example 46, 3-((4,5-dibutylnonanoyl)oxy)-2-(9-(4-hydroxybutyl)-3,9-diazaspiro[5.5]undecan-3-yl)propyl palmitate]	92 nm	0.090	–	–	99%	–	–	–	1.7 ng/well	24.6 ng/well
CCCCCCCCCCCCCCCC(=O)OCC(COC(=O)C(CCCCCC)CCCCCCCC)N1CCC2(CCN(CCCCO)CC2)CC1 (stereo not shown) [Example 7, 3-((2-hexyldecanoyl)oxy)-2-(9-(4-hydroxybutyl)-3,9-diazaspiro[5.5]undecan-3-yl)propyl palmitate]	84 nm	0.130	–	–	99%	–	–	–	2.0 ng/well	20.4 ng/well
CCCCCCCC(CCCCCCC)CCC(=O)OCC(COC(=O)CCC(CCCCCCC)CCCCCCC)N1CCC2(CCN(CCCCO)CC2)CC1 [Example 40, 2-(9-(4-hydroxybutyl)-3,9-diazaspiro[5.5]undecan-3-yl)propane-1,3-diyl bis(4-heptylundecanoate)]	117 nm	0.080	–	–	100%	–	–	–	3.6 ng/well	5.6 ng/well
CCCCCCCCC(CCCCC)C(=O)OCC(COC(=O)C(CCCCC)CCCCCCCC)N1CCC2(CCN(CCCCO)CC2)CC1 (stereo not shown) [Example 29, 2-(9-(4-hydroxybutyl)-3,9-diazaspiro[5.5]undecan-3-yl)propane-1,3-diyl bis(2-pentyldecanoate)]	130 nm	0.050	–	–	100%	–	–	–	1.0 ng/well	0.82 ng/well
CCCCCCCC(CCCCCCC)C(=O)OCC(COC(=O)C(CCCCCCC)CCCCCCC)N1CC2(CCN(CCCCO)CC2)C1 [Example 13, 2-(7-(4-hydroxybutyl)-2,7-diazaspiro[3.5]nonan-2-yl)propane-1,3-diyl bis(2-heptylnonanoate)]	131 nm	0.086	–	–	99%	–	–	–	1.6 ng/well	0.36 ng/well
CCCCCCCC(CCCCCCC)OC(=O)CCC(=O)O[C@@H]1CC2(CCN(CCCCO)CC2)C[C@H]1OC(=O)CCC(=O)OC(CCCCCCC)CCCCCCC (racemic) [Example 62, rac-O,O′-((2R,3R)-8-(4-hydroxybutyl)-8-azaspiro[4.5]decane-2,3-diyl) di(pentadecan-8-yl) disuccinate]	161 nm	0.090	–	–	99%	–	–	–	1.0 ng/well	0.36 ng/well
